Reference: publication PMC8470279, “Biosynthesis of the Novel Endogenous 15-Lipoxygenase Metabolites N-13-Hydroxy-octodecadienoyl-ethanolamine and 13-Hydroxy-octodecadienoyl-glycerol by Human Neutrophils and Eosinophils” (Cells, 2021)
Read-outs that look alike come from different tables or passages of the source.

What was measured:
human eosinophils [1] = assay: Biosynthesis of 15-LO metabolites by human eosinophils; details: for Delay before metabolism into 15-lipoxygenase counterpart / Time of maximal levels of 15-lipoxygenase metabolite: 3 µM substrate; for Time of maximal levels of 15-lipoxygenase metabolite: longest time point studied; for Times more metabolite in eosinophils than in neutrophils: same donors, combination of LA, 1-LG and LEA at 3 µM each, 5 min
human neutrophils [2] = assay: Biosynthesis of 15-LO metabolites by human neutrophils
human recombinant TRPV1 = molecular target: T1, human recombinant TRPV1 (Homo sapiens, UniProt Q8NER1); assay: TRPV1-mediated intracellular calcium elevation; assay type: cell-based; details: mean ± SD; for IC50: assayed using 100 nM capsaicin, read-out: Desensibilization (IC50); for Emax: read-out: Efficacy (% Max Response)
T1 construct: expressed in transfected cells
Excerpt: (§1) These assays we preformed exactly as described in [21].

[3] = molecular target: human recombinant CB2 receptor (Homo sapiens, UniProt P34972); assay: CB2 receptor binding assay; details: mean ± SD; for CB2 Receptor Max Tested (% Displacement): 10 µM
Method: (§2) The analysis of CB1 and CB2 receptor binding was performed exactly as described in [21].

[4] = molecular target: T2, human recombinant 15-LO-2 (Homo sapiens, UniProt O15296); assay: Metabolism of substrates by recombinant 15-LO-2, LC-MS/MS; assay type: biochemical; details: 10 µM 1-LG, 15 min, 37 °C
T2 sequence (O15296 1-676): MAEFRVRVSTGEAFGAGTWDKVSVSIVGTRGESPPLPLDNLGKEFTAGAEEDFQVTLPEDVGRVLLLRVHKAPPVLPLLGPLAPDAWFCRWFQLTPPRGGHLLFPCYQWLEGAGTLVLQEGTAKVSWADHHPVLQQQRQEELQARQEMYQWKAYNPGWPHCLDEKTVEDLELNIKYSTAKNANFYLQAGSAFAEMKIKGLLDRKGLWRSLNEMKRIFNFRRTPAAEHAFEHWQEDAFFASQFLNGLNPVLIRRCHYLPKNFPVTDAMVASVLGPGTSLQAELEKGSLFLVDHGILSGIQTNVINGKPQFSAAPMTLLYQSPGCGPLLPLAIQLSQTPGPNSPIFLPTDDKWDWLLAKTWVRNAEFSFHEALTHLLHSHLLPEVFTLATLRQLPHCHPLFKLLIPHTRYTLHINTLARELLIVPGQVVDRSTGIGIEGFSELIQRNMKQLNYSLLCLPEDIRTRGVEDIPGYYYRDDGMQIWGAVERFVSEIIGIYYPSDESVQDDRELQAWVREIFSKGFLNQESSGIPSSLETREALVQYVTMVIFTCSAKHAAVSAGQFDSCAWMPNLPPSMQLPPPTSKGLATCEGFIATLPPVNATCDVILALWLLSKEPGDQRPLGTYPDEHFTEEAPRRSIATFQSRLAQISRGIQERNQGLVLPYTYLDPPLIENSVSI
Method: (§3) Recombinant human 15-LO-1 and 15-LO-2 enzymes were added to HEPES 25 mM + 0.01% Triton (14 μg/mL for 15-LO-1, 56 μg/mL for 15-LO-2). A total of 10 μM of the fatty acids were added to the buffer for 5 min (15-LO-1) or 15 min (15-LO-2), at 37 °C. The final volume of the reaction mix was 100 µL. After the incubation, 50 µL of NaBH4 1M was added to the reaction, for 5 min at 37 °C. The reactions were stopped by adding 0.5 mL of cold (−20 °C) methanol +0.01% acetic acid and kept at −30 °C until further processing.
(§4) Figure 3 Metabolism of 1-LG, LA and LEA by human recombinant 15-LO-1 and 15-LO-2. Human recombinant 15-LO-1 (A–D) or 15-LO-2 (E–H) were incubated at 37 °C in HEPES 25 mM containing 0.01% triton. A total of 10 μM of LA (A,D,E,H); 1-LG (B,D,F,H) or LEA (D,H) were added for 5 min (15-LO-1) or 15 min (15-LO-2). NaBH4 was then added for 5 min and incubations were stopped by the addition of 0.5 mL of cold (−20 °C) MeOH containing 0.01% acetic acid and the internal standards. Samples then were processed for LC-MS/MS analyses as described in methods. Results are the mean (±SEM) of 3 independent experiments.

[5] = molecular target: human recombinant CB1 receptor (Homo sapiens, UniProt P21554); assay: CB1 receptor binding assay; details: mean ± SD; for CB1 Receptor Max Tested (% Displacement): 10 µM
Method: as §2

[6] = molecular target: T3, human recombinant 15-LO-1 (Homo sapiens, UniProt P16050); assay: Metabolism of substrates by recombinant 15-LO-1, LC-MS/MS; assay type: biochemical; details: 10 µM 1-LG, 5 min, 37 °C
T3 sequence (P16050 1-662): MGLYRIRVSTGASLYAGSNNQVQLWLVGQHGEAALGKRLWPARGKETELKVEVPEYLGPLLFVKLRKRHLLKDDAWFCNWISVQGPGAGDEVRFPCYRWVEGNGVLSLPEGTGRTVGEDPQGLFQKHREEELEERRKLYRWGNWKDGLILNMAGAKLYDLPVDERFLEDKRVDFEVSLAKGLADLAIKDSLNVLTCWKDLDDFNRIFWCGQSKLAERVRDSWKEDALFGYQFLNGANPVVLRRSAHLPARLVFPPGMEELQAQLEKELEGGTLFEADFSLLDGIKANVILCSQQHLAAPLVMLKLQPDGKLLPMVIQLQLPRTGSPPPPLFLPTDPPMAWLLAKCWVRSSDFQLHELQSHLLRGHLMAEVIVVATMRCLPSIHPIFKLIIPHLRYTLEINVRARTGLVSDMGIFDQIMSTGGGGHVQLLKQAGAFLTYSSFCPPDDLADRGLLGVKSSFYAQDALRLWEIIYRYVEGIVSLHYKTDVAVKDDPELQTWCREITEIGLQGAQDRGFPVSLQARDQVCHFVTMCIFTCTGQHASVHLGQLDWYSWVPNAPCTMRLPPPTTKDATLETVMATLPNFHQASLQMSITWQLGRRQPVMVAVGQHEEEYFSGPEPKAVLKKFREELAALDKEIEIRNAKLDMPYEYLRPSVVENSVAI
Method: as §3, §4

[7] = molecular target: T2, human recombinant 15-LO-2; design: method as in PMID 33915294; details: previous publication; cited from earlier work
human neutrophils [8] = assay: Hydrolysis/stability of added 13-HODE-EA in neutrophil suspensions; assay type: in vitro ADME; details: neutrophils 5 × 10^6 cells/mL
[9] = molecular target: T3, human recombinant 15-LO-1; design: method as in PMID 33915294; details: previous publication; cited from earlier work
human eosinophils [10] = assay: Hydrolysis/stability of added 13-HODE-EA in eosinophil suspensions; assay type: in vitro ADME; details: eosinophils 10^6 cells/mL
PPAR-α = molecular target: T4, PPAR-α (Homo sapiens, UniProt Q07869); assay: PPAR-α functional (transcriptional) activity assay kit; assay type: cell-based; details: 30 µM, overnight
T4 construct: purchased
T4 sequence (Q07869 1-468): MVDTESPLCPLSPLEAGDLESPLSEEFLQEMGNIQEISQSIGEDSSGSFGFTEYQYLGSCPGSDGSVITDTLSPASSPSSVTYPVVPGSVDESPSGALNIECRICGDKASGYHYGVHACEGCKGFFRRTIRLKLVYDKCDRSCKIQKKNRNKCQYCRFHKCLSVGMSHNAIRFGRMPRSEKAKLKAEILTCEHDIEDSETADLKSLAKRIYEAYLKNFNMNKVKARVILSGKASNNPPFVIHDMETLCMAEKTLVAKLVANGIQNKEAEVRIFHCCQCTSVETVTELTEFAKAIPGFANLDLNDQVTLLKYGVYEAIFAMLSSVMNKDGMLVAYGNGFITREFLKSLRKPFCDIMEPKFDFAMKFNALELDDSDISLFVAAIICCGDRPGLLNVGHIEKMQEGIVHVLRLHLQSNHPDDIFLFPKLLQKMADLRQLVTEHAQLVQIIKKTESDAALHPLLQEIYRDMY
Method: as §1
(§5) Figure 10 Impact of 13-HODE and 13-HODE-G on PPAR activity. Cells were incubated with 30 µM 13-HODE, 13-HODE-G, or OEA overnight and PPAR activity was measured using the PPAR assay kits according to the manufacturers’ instructions. Rosiglitazone (10 µM) and GW 590735 (100 nM) were utilized as positive controls for the (A) PPAR-γ and (B) PPAR-α assays, respectively. Data represent the mean (± SEM) of three (PPAR-γ) or five (PPAR-α) experiments, each performed in triplicates. p values were obtained by performing a 2-way ANOVA with a Sidak multiple comparison tests. **** p < 0.0001, *** p < 0.001. ns: p > 0.05.

human neutrophils [11] = assay: Inhibition of 13-HODE-G and 13-HODE-EA biosynthesis by 15-LO inhibitors in neutrophils; assay type: cell-based; details: inhibitor 10 µM 5 min, then 3 µM LEA or 1-LG 5 min
Excerpt: Figure 9 Inhibition of 13-HODE-G and 13-HODE-EA biosynthesis by 15-LO inhibitors in human eosinophils and neutrophils. […] Samples then were processed for LC-MS/MS analyses as described in methods. Results are the mean (±SEM) of 4 independent experiments.

PPAR-γ = molecular target: T5, PPAR-γ (Homo sapiens, UniProt P37231); assay: PPAR-γ functional (transcriptional) activity assay kit; assay type: cell-based; details: 30 µM, overnight
T5 construct: purchased
T5 sequence (P37231 1-505): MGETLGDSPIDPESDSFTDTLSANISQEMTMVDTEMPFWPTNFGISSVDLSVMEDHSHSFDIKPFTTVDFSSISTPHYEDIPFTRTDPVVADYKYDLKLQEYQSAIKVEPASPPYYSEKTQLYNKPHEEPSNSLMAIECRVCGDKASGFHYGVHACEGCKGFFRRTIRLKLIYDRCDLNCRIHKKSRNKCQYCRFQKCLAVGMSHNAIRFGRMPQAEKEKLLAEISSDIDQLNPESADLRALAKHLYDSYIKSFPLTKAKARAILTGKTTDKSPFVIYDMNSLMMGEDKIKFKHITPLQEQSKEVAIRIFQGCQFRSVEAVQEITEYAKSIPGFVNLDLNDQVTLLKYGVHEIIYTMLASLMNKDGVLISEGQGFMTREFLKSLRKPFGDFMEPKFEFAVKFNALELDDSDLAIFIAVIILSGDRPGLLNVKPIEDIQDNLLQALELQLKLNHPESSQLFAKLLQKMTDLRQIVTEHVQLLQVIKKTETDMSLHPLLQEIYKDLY
Method: as §1, §5

[12] = Detection of 13-HODE-G in human samples by LC-MS/MS; details: mean ± SEM, n = 5
[13] = intracellular calcium elevation

Sequence of human recombinant CB1 receptor (P21554 whole entry): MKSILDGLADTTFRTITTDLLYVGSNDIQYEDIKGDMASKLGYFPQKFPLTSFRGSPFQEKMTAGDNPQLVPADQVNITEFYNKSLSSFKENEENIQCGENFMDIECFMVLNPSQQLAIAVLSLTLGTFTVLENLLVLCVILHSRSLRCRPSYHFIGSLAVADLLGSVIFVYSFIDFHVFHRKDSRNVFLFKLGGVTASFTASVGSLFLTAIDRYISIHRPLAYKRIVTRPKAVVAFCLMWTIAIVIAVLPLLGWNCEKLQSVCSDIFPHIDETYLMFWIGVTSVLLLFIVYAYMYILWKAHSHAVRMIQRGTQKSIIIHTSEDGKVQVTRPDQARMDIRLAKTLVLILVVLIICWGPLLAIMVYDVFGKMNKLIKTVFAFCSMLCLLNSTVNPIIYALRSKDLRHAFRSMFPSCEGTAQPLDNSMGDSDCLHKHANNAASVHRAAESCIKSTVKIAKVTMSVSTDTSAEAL
T1 sequence (Q8NER1 whole entry): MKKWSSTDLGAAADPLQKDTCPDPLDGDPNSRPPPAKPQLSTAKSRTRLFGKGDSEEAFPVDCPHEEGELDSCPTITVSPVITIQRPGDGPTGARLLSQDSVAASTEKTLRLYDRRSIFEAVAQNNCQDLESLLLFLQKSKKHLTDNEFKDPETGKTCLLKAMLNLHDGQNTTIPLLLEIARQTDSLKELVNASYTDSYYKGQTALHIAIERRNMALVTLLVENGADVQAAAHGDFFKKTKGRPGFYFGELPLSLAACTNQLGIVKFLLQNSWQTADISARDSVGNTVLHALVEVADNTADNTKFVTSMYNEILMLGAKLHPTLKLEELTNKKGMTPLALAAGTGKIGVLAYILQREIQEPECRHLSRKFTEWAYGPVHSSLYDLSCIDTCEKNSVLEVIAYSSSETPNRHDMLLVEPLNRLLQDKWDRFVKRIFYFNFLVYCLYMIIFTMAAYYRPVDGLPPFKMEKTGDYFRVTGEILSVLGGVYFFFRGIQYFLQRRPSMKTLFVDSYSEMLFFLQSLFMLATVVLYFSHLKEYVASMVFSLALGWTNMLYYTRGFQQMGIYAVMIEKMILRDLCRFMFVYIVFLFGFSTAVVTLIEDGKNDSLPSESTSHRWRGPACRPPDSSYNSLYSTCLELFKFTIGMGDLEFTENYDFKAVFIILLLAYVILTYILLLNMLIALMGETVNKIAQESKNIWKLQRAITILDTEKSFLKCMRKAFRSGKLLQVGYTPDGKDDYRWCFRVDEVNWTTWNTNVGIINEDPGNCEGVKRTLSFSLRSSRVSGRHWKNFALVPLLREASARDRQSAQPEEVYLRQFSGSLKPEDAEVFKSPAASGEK
Sequence of human recombinant CB2 receptor (P34972 whole entry): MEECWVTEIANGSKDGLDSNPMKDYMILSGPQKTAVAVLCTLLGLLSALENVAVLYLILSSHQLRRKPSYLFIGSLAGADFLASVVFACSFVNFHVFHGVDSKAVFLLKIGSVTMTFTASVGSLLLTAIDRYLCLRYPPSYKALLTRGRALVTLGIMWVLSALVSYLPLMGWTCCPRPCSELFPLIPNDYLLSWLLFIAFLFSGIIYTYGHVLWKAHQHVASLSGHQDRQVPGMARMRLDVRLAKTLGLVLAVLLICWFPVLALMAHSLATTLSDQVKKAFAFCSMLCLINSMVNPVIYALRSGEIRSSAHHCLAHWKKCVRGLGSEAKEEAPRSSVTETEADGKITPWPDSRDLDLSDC

| SMILES | Time of maximal levels of 15-lipoxygenase metabolite (human eosinophils [1]) | IC50 (human recombinant TRPV1) | Emax (human recombinant TRPV1; [13]) | CB2 Receptor Max Tested (% Displacement) [3] | IC50 [3] | Ki [3] | CB1 Receptor Max Tested (% Displacement) [5] | IC50 [5] | Ki [5] | Times more metabolite in eosinophils than in neutrophils (human eosinophils [1]) | further results |
| --- | --- | --- | --- | --- | --- | --- | --- | --- | --- | --- | --- |
| CCCCC/C=C\C/C=C\CCCCCCCC(=O)NCCO [LEA, N-linoleoyl-ethanolamine] | 15 min | – | – | – | – | – | – | – | – | – | Delay before metabolism into 15-lipoxygenase counterpart (human eosinophils [1]): ~ 1 min; Ratio 13-HODE/13-HODE-EA (human neutrophils [2]): 2.67 ± 0.590; Time to biosynthesis of 13-HODE derivatives (human neutrophils [2]): 10 to 30 s |
| CCCCC/C=C\C/C=C\CCCCCCCC(=O)OCC(O)CO (stereo not shown) [1-LG, 1-linoleoyl-glycerol] | 15 min | 2.7 ± 0.3 µM | 46.5 ± 0.9% | 10 µM (28.45 ± 9.4) % | > 10 µM | > 10 µM | 10µM (95.8 ± 16.4) % | 2.81 ± 0.85 µM | 0.31 ± 0.15 µM | – | Delay before metabolism into 15-lipoxygenase counterpart (human eosinophils [1]): ~ 1 min; EC50 (human recombinant TRPV1; intracellular calcium elevation, read-out: Potency (EC50)): 0.23 ± 0.02 µM; Time to biosynthesis of 13-HODE derivatives (human neutrophils [2]; 3 µM substrate): 10 to 30 s; Efficacy of the reaction (1-LG to 13-HODE-G) [4]: 40%; Efficacy of the reaction (1-LG to 13-HODE-G) [6]: 23% |
| CCCCC/C=C\C/C=C\CCCCCCCC(=O)O [LA, Linoleic acid] | 15 min | – | – | – | – | – | – | – | – | – | Time of peak 13-HODE biosynthesis (human neutrophils [2]; 3 µM LA): 10 s; Time to biosynthesis of 13-HODE derivatives (human neutrophils [2]; 3 µM substrate): 10 to 30 s |
| CCCCC[C@H](O)/C=C/C=C\CCCCCCCC(=O)NCCO [13-HODE-EA, N-13-hydroxy-octodecadienoyl-ethanolamine] | – | – | – | – | – | – | – | – | – | ~ 500 times | 13-HODE-EA/13-HODE ratio [7]: ~ 3; Remaining after 15 min (human neutrophils [8]): 60%; 13-HODE-EA/13-HODE ratio [9]: ~ 3.5; Remaining after 15 min (human eosinophils [10]): 90% |
| CCCCC[C@H](O)/C=C/C=C\CCCCCCCC(=O)O [13-HODE, 13(S)-hydroxy-octodecadienoic acid] | – | > 50 µM | < 10% | 10 µM (38.34 ± 5.4) % | > 10 µM | > 10 µM | 10 µM (7.56 ± 2.3) % | > 10 µM | > 10 µM | ~ 30 times | Stimulation of PPAR-α transcriptional activity (PPAR-α): robust effect |
| CC(Cc1ccc(O)c(O)c1)C(C)Cc1ccc(O)c(O)c1 (stereo not shown) [NDGA] | – | – | – | – | – | – | – | – | – | – | Inhibition of biosynthesis of the investigated 15-LO metabolites (human neutrophils [11]): did not inhibit |
| CCCCC[C@H](O)/C=C/C=C\CCCCCCCC(=O)OCC(O)CO (stereo partly shown) [13-HODE-G, 13-hydroxy-octodecadienoyl-glycerol] | – | > 50 µM | < 10% | 10 µM (33.58 ± 21.3) % | > 10 µM | > 10 µM | 10 µM (18.90 ± 6.1) % | > 10 µM | > 10 µM | ~ 60 times | Stimulation of PPAR-α transcriptional activity (PPAR-α): did not stimulate; Stimulation of PPAR-γ transcriptional activity (PPAR-γ): did not stimulate; Level in human epidermis samples [12]: 21.9 ± 6.2 fmol/mg tissue |
